From patent publication US20240217988A1, “ESTROGEN RECEPTOR ANTAGONIST” (Shenzhen Forward Pharmaceuticals Co., Limited, priority 2021, published 2024)

Tests used:
[1] = target: ERα (Homo sapiens (Human), UniProt P03372); assay: Degradation effect of compound on ERα (ERα DuoSet IC ELISA in MCF-7 cells); format: cell-based; details: 24 h with compound, read-out: IC50 value of ERα degradation by compound
Protocol: In this test example, ERα DuoSet IC ELISA Kit (R&D, DYC5715) was used to detect the degradation effect of the compound on ERα. On the first day of the experiment, human breast cancer cells MCF-7 (the source was as above) were inoculated into a 24-well plate. The culture medium was an MEM culture medium containing 10% of activated-carbon-treated FBS (Tocyto, UT61204), 1% of pyruvic acid and 1% of nonessential amino acid. The inoculation density was 150,000 cells/well. The cells were cultured at 37° C., 5% CO2 for 24 h.
On the second day of the experiment, the compound to be tested was diluted in gradient and added to a 24-well plate containing cells. The cells were cultured for 24 h at 37° C., 5% CO2. ERα capture antibody was diluted to 1 μg/ml with PBS (Corning, 21-040-CVR) and added to a 96-well plate at 100 μL/well, and the plate was […] coated overnight at room temperature.
On the third day of the experiment, the coated 96-well plate was washed three times with PBS, 300 μL of a blocking solution (R&D, DY995) was added to each well, and the plate was blocked at room temperature for 1 h. The 24-well plate was washed once with PBS, and the residual liquid was sucked off. […] The diluted cell lysate was taken and added to the blocked 96-well plate, with 100 μL per well, and incubated at room temperature for 2 h. The plate was washed three times with a washing solution (R&D, WA126), and a primary antibody was then added. After incubation for 1 h, the 96-well plate was washed four times, a secondary antibody was added, and incubation was carried out at room temperature in the dark for 30 min. The plate was washed four times with the washing solution, and TMB (R&D, DY999) was added. After 15 minutes of development, the reaction was terminated with a stop solution (R&D, DY994), and the light absorption at 450 nm was read.

[2] = test system: Human breast cancer cells MCF-7; assay: MCF-7 cell proliferation experiment; format: cell-based; details: Homo sapiens, MCF7; MCF-7 cells, 72 hours, Cell Titer-Glo
Protocol: Test Example 2: MCF-7 Cell Proliferation Experiment
Human breast cancer cells MCF-7 (HTB-22, purchased from ATCC) were inoculated into a 96-well plate. The culture medium was an MEM (Hyclone, SH30024.01B) culture medium containing 10% of FBS (Gibco, 10099-141), 1% of pyruvic acid (Sigma, S8636), and 1% of nonessential amino acid (Sigma, M7145), and the inoculation density was 4,000 cells/well. The cells were cultured at 37° C., 5% CO2. The compound was prepared into a 20 mM stock solution, which was subjected to gradient dilution to a final concentration of […] with 100% DMSO (Sigma, D2650) and then diluted 20 folds with a culture medium containing 2% of FBS. After 24 hours of culture, the culture medium was removed, 90 μL of a culture medium containing 2% of FBS and 10 μL of drug were added to each well, while 10 μL of DMSO was added to the control group, and they were gently shaken and mixed. The blank group only contained 100 μL of 2% FBS culture medium. They were placed in an incubator and cultured at 37° C., 5% CO2. After 72 hours, 50 μL of mixed Cell Titer-Glo (Promega, G7571) was added. They were shaken and mixed uniformly, and placed at room temperature for 10 min. The chemiluminescence signal value was determined. The negative control was 0.5% DMSO well.

[3] = target: GST-ERα-LBD (Homo sapiens (Human), UniProt P03372); assay: ERα TR-FRET test; format: biochemical; details: estradiol final concentration 1.5 nM, biotin-SRC2
Protocol: 1× Tris-HCl (Sigma, PHG0002) protein buffer was prepared and mixed for later use. The compound to be detected was prepared into a stock solution with a concentration of 2 mM and then subjected to serial 3-fold gradient dilution, resulting in a total of 10 concentrations.
Preparation of 1× protein mixed solution: firstly, 2× GST-ERα-LBD (Invitrogen, A15677)/MAb anti-GST-Eu (Cisbio, 61GSTKLA) mixed solution was prepared according to the following table.
2× biotin-SRC2/streptavidin-XL665 (Cisbio, 610SAXLA) mixed solution was prepared.
The above 2× GST-NR-LBD/ MAb anti-GST-Eu solution and 2× biotin-SRC2/streptavidin-XL665 solution were uniformly mixed at a volume ratio of 1:1; and the 1× protein mixed solution was added to each well of a 384-well plate, with 20 μL being added per well, the 384-well plate was put into a centrifuge and centrifuged at room temperature at 1000 rpm for 10 seconds, and it was taken out, then left to stand at room temperature for 3 h, and then read by EnVision multifunctional microplate reader.
The inhibition rate was calculated according to the following formula: […]
The data were imported into Graphpad Prism, and Log(agonist) vs. response-variable slope was used for curve fitting.
Y=Bottom+(Top−Bottom)/(1+10^((LogEC50−X)*HillSlope)) Fitting formula

[4] = Stability in human liver microsomes in vitro; format: in vitro ADME; details: human liver microsomes
Protocol: Test Example 4: Test for Stability in Human Liver Microsomes In Vitro Eight 96-well incubation plates were prepared and named [NT], Blank60 and NCF60, respectively. […] No test compound or control compound was added to Blank60 plate, and samples were taken after incubation for 60 min. NCF60 plate was incubated with a potassium phosphate buffer instead of an NADPH regeneration system solution (Sigma, N0505) for 60 min. […] Only the microsome working solution was added to Blank60 plate, and the incubation plates Blank60, T5, T15, T30, T45 and T60 except T0 and NCF60 were then placed in a water bath at 37° C. and pre-incubated for about 10 min. To the samples of T0 plate, 600 μL of a stop solution (acetonitrile:methanol (95:5, v/v) solution containing 100 ng/mL of tolbutamide (Sigma, T0891)) was added first, and the NADPH regeneration system working solution was then added. 98 μL of a potassium phosphate buffer was added to each well of NCF60 plate and incubated for 60 min. After the pre-incubation in the incubation plates Blank60, T5, T15, T30, T45 and T60 was completed, 98 μL of the NADPH regeneration system working solution was added to each sample well to initiate the reaction. After an appropriate incubation time (such as 5, 15, 30, 45 and 60 min), 600 μL of a stop solution was added to each sample well and the control sample well in Blank60, […] the reaction. All the sample plates were shaken uniformly and centrifuged at 3220×g for 20 min. 200 μL of test sample supernatant was separately taken and diluted in 200 μL of an aqueous solution containing 0.3% formic acid for LC-MS/MS analysis, and 100 μL of control sample supernatant was taken and diluted in 300 μL of pure water for LC-MS/MS analysis. Calculation was performed according to the following formula: [formula] [formula] [formula] [formula] [formula] [formula]

ERα, sequence (P03372 whole entry): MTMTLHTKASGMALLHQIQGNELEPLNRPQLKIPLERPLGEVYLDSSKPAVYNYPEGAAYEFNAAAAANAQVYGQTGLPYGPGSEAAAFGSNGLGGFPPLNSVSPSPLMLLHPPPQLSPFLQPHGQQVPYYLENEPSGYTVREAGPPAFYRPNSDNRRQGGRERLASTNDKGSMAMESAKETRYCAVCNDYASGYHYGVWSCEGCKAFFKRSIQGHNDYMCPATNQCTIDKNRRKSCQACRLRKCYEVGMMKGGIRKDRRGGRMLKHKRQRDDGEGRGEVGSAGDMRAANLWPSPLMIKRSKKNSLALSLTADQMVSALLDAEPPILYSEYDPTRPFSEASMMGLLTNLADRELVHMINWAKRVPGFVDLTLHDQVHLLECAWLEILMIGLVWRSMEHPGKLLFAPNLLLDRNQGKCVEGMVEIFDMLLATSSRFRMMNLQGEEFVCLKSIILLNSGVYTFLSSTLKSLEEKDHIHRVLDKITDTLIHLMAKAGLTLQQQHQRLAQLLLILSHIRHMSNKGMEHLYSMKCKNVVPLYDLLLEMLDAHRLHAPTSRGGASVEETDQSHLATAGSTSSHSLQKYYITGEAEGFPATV
GST-ERα-LBD, sequence (P03372 311-547): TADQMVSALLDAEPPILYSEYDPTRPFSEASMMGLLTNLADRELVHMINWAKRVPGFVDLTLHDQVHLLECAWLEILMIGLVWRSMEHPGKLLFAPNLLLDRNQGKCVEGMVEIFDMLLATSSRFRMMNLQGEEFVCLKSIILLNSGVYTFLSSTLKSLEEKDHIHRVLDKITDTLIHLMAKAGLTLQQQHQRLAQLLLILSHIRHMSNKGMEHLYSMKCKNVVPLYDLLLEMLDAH

Compound: C[C@@H]1Cc2c(ccc3[nH]c(=O)oc23)[C@@H](c2c(F)cc(OC3CN(CCCF)C3)cc2F)N1CC(F)(F)F [Example 12, (6S,8R)-6-(2,6-difluoro-4-((1-(3-fluoropropyl)azetidin-3-yl)oxy)phenyl)-8-methyl-7-(2,2,2-trifluoroethyl)-6,7,8,9-tetrahydrooxazolo[5,4-f]isoquinolin-2(3H)-one]
- DC50 [1]: 570 pM
- IC50 [2]: 490 pM
- IC50 [3]: 15600 pM
- half-life ([4]; microsome protein 1 mg/mL working solution, NADPH): 1.73 h
- CLint scaled ([4]; scaled to liver): 8.9 mL/min/kg
- microsomal CLint ([4]; read-out: CLint(mic)): 9.8 µL/min/mg
